Calls of active or inactive are those of the source. The rule behind the calls is not given here.
Key:
Bacillus subtilis [1] = assay: Antibacterial activity against Bacillus subtilis assessed as zone of inhibition at 10 ug after 24 hrs; format: functional; conditions: for zone of inhibition at 10 µg/disc: read-out: DIZ
Fusarium oxysporum [2] = assay: Antifungal activity against Fusarium oxysporum lycopersici assessed as zone of inhibition at 10 ug after 48 hrs; format: functional, Fusarium oxysporum f. sp. lycopersici; conditions: read-out: DIZ
Fusarium [3] = assay: Antifungal activity against Fusarium recini after 48 hrs; format: functional
Fusarium [4] = assay: Antifungal activity against Fusarium recini assessed as zone of inhibition at 10 ug after 48 hrs; format: functional; conditions: read-out: DIZ
Fusarium oxysporum [5] = assay: Antifungal activity against Fusarium oxysporum lycopersici after 48 hrs; format: functional, Fusarium oxysporum f. sp. lycopersici
Bacillus subtilis [6] = assay: Antibacterial activity against Bacillus subtilis after 24 hrs; format: functional
Escherichia coli [7] = assay: Antibacterial activity against Escherichia coli after 24 hrs; format: functional
Escherichia coli [8] = assay: Antibacterial activity against Escherichia coli assessed as zone of inhibition at 10 ug after 24 hrs; format: functional; conditions: for zone of inhibition at 10 µg/disc: read-out: DIZ
Escherichia coli [9] = assay: Antibacterial activity against Escherichia coli at 25 to 100 ug after 24 hrs; format: functional, organism-based
Bacillus subtilis [10] = assay: Antibacterial activity against Bacillus subtilis at 25 to 100 ug after 24 hrs; format: functional, organism-based

Structure (SMILES)	zone of inhibition at 10 µg/disc (Bacillus subtilis [1])	zone of inhibition at 10 µg/disc (Fusarium oxysporum [2])	MIC (Fusarium [3])	zone of inhibition at 10 µg/disc (Fusarium [4])	MIC (Fusarium oxysporum [5])	MIC (Bacillus subtilis [6])	MIC (Escherichia coli [7])	zone of inhibition at 10 µg/disc (Escherichia coli [8])	diameter of the inhibition zone (DIZ) (Bacillus subtilis [1])	diameter of the inhibition zone (DIZ) (Escherichia coli [8])	Activity (Escherichia coli [9])	Activity (Bacillus subtilis [10])
Clc1cc2c(cn1)nnn2Cc1ccccc1	13 mm	1 mm	25 µg	7 mm	100 µg	25 µg	25 µg	10 mm				
COc1ccc(-n2nnc3cccnc32)cc1		2 mm	50 µg	3 mm	100 µg				inactive	inactive		
COc1ccc(-n2nnc3cnc(Cl)cc32)cc1		6 mm	25 µg	7 mm	50 µg				inactive	inactive		
c1cnc2c(c1)nnn2C1CCOCC1		3 mm	50 µg	5 mm	75 µg				inactive	inactive		
Clc1cc2c(cn1)nnn2C1CCOCC1		6 mm	25 µg	6 mm	50 µg				inactive	inactive		
Fc1ccc(-n2nnc3cnc(Cl)cc32)cc1		3 mm	50 µg	7 mm	50 µg				inactive	inactive		
CN[C@@H]1[C@H](O[C@H]2[C@H](O[C@H]3[C@H](O)[C@@H](O)[C@H](N=C(N)N)[C@@H](O)[C@@H]3N=C(N)N)O[C@@H](C)[C@]2(O)C=O)O[C@@H](CO)[C@H](O)[C@H]1O [STREPTOMYCIN]	16 mm					25 µg	25 µg	13 mm				
Fc1ccc(-n2nnc3cccnc32)cc1	12 mm	6 mm	50 µg	5 mm	75 µg	25 µg	100 µg	11 mm				
Oc1ncnc2c1nnn2Cc1ccccc1		5 mm	50 µg	6 mm	100 µg				inactive	inactive	inactive	inactive
Cc1ccc(-n2nnc3cccnc32)c(C)c1		6 mm	100 µg	6 mm	75 µg				inactive	inactive		
